In ChEMBL document CHEMBL5033989, “Nor-abietane Diterpenoids from Perovskia abrotanoides Roots with Anti-inflammatory Potential” (J Nat Prod, 2021):
Calls of active or inactive are those of the source. No cut-off for these calls is given here.

Experiments:
J774.A1 [1] = assay: Cytotoxicity against mouse J774.A1 cells assessed as antiproliferative activity at 12.5 to 50 uM incubated for 24 hrs by MTT assay relative to control; assay type: cell-based; conditions: j774.a1, 24 h, dose 12.5-50 µM
J774.A1 [2] = assay: Inhibition of LPS-induced NO release in mouse J774.A1 cells at 12.5 to 50 uM when treated with compound and LPS simultaneously measured after 24 hrs by Griess reagent based assay relative to control; assay type: functional, cell-based; conditions: dose 12.5-50 µM
J774.A1 [3] = assay: Inhibition of iNOS expression in LPS-stimulated mouse J774.A1 cells at 12.5 to 50 uM measured after […] by flow cytometry analysis relative to control; assay type: functional, cell-based; conditions: dose 12.5-50 µM
J774.A1 [4] = assay: Inhibition of LPS-induced NO release in mouse J774.A1 cells at 5 uM when treated with compound and LPS simultaneously measured after 24 hrs by Griess reagent based assay relative to control; assay type: functional; parameters: scale not given: the % may be the effect or the level left
J774.A1 [5] = assay: Cytotoxicity against mouse J774.A1 cells assessed as antiproliferative activity at 200 uM incubated for 24 hrs by MTT assay relative to control; assay type: cell-based; conditions: j774.a1, 24 h

SMILES | Activity (J774.A1 [1]) | Activity (J774.A1 [2]) | Activity (J774.A1 [3]) | Activity (J774.A1 [4]) | Activity (J774.A1 [5])
CC1(C)CCC[C@@]23CO[C@@H](C[C@@H]12)c1cc(O)c(O)cc13 | Toxic |  |  |  | 
CC(C)c1cc2ccc3c(c2c(O)c1O)C=CC(=O)C3(C)C | Non-Toxic | Active | Active |  | 
COC(=O)[C@@H](N)CCCNC(=N)N[N+](=O)[O-].Cl |  |  |  | 57% | 
Cc1cc2c(cc1O)[C@@]13CCCC(C)(C)[C@@H]1[C@H](OC3)[C@@H]2O | Toxic |  |  |  | 
CC1=C[C@]2(O)CC[C@H]3C(C)(C)CCC[C@@]3(O)C2=CC1=O | Non-Toxic | Active | Active |  | 
CC(CO)C1=C(O)C(=O)c2c(ccc3c2[C@H](O)CCC3(C)C)C1=O (stereo not given in full) | Non-Toxic | Active | Active |  | 
Cc1cc2c(cc1O)C[C@]1(O)CCCC(C)(C)[C@@H]1CC2 | Non-Toxic | Active | Active |  | 
Sc1ncnc2nc[nH]c12 [MERCAPTOPURINE ANHYDROUS] |  |  |  |  | 27.86%
Cc1cc2c(cc1O)[C@@]13CCC(=O)C(C)(C)[C@@H]1C[C@@H]2OC3 | Non-Toxic | Active | Active |  | 
CC1=C[C@@]2(O)CC[C@H]3C(C)(C)CCC[C@]3(CO)C2=CC1=O | Toxic |  |  |  | 
